According to patent US5629469A, “Thiol protease inhibitor” (Sandoz Ltd., priority 1995, dated 1997):

Tests used:
wCRW larvae = assay: Artificial diet bioassay, neonate wCRW larvae; type: in vivo; details: Diabrotica virgifera, 144 h; diet supplemented with 0.01%; mortality at day 6; read-out: % wCRW mortality ± SE
Experimental: Neonate wCRW larvae are allowed to feed on BioServe, a standard artificial diet used for southern corn rootworm. The diet is supplemented with the treatments indicated below in Table 3. Two or 3 larvae are placed in treatment wells with 9 replicate wells used per treatment. The larvae are allowed to feed on the diet and mortality is evaluated at day 6.

[1] = system: proteolytic activity in the midgut extracts; details: three species of beetles; cited from earlier work

For `CC(C)C[C@H](NC(=O)[C@H]1O[C@@H]1C(=O)O)C(=O)NCCCCN=C(N)N` [E64, [N-(L-3 transcarrboxyoxiran-2-carbonyl)-L-leucyl]-amido(4-guanido)-butane], the mortality at 0.01 % (wCRW larvae) is listed as 80 ± 8% and the “inhibition of proteolytic activity in midgut extracts” value [1] is listed as “much or most of the proteolytic activity in the midgut extracts was inhibited”.
